Test system: DNBS-induced colitis
Experiment: DNBS-induced colitis in rats, macroscopic damage score
Assay type: in vivo, rat
Details: Sprague-Dawley rats, intrarectal DNBS on day 2, DNBS group score 10.7±0.4
Experimental: Albino male Sprague-Dawley rats, 200-250 g body weight, were treated with intrarectal DNBS (2,4-dinitrobenzensufonic acid, 30 mg in 0.25 ml of 50% ethanol) under a light anaesthesia with diethyl ether. In control experiments, the animals received 0.25 ml of saline (NaCl 0.9%). Animals were subjected to subsequent experimental procedures 6 days after induction of colitis with DNBS (Blandizzi et al., Altered prejunctional modulation of intestinal cholinergic and noradrenergic pathways by alpha-2-adrenoceptors in the presence of experimental colitis. Br J Pharmacol 139, 309-320, 2003). […]
At the end of treatments, animals were sacrificed and the severity of colonic inflammation was macroscopically evaluated in accordance with the criteria previously reported by Wallace and Keenan (Wallace J L and Keenan C M, An orally active inhibitor of leukotriene synthesis accelerates healing in a rat model of colitis. Am J Physiol, 258, G527-G534, 1990) with minor modifications (Blandizzi, et al., 2003). Briefly, the macroscopic evaluation is based on the following criteria: presence of adhesions between the colon and other intra-abdominal organs; consistency of colonic faecal material (as an indirect marker of diarrhea); thickening of the colonic wall; presence and extension of hyperemia and macroscopic mucosal damage (assessed with the aid of a ruler) (FIG. 2). […]

SMILES: CC[C@H]1OC(=O)[C@H](C)[C@@H](O)[C@H](C)[C@@H](O[C@@H]2O[C@H](C)C[C@H](N(C)C(C)=O)[C@H]2O)C(C)(O)C[C@@H](C)[C@H](O)[C@H](C)[C@@H](O)[C@]1(C)O (some centres unmarked) [macrolide]
- anti-inflammatory effect (change of macroscopic damage score) (100 μmol/kg/day by intragastric gavage for 7 days): −24%
- anti-inflammatory effect (change of macroscopic damage score) (300 μmol/kg/day by intragastric gavage for 7 days): −51%
